From ChEMBL document CHEMBL1133907, “Discovery of thioazepinone ligands for Src SH2: from non-specific to specific binding” (Bioorg Med Chem Lett, 2001)

Legend:
[1] = target: T1, Proto-oncogene tyrosine-protein kinase Src (Homo sapiens, UniProt P12931); assay: Binding affinity was determined on Src protein tyrosine kinase SH2 domain using fluorescence polarization assay with 2% DMSO in buffer solution
[2] = target: T1, Proto-oncogene tyrosine-protein kinase Src; assay: Binding affinity for Src protein tyrosine kinase SH2 domain
[3] = target: T1, Proto-oncogene tyrosine-protein kinase Src; assay: Binding affinity for Src protein tyrosine kinase SH2 domain using fluorescence polarization assay with 20% DMSO in buffer solution
[4] = target: T1, Proto-oncogene tyrosine-protein kinase Src; assay: Binding affinity was determined on Src protein tyrosine kinase SH2 domain using scintillation proximity assay (SPA)

T1 sequence (P12931 2-536 limits assumed): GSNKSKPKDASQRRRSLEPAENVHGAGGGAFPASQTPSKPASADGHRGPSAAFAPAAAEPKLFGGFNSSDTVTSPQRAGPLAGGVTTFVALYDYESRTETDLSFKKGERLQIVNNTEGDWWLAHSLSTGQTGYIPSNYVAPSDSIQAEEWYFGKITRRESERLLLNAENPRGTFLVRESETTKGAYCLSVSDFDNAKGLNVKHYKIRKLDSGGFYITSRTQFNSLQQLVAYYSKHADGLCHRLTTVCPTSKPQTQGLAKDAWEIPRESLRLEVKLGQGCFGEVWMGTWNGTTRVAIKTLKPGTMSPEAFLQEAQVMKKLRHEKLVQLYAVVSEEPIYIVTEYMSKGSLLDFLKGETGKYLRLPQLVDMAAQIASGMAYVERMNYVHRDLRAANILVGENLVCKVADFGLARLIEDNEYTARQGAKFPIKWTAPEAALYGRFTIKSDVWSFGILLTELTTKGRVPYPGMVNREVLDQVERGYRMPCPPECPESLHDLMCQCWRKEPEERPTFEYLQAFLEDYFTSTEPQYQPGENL

SMILES | IC50 [1] [µM] | further results
COc1ccc(C2Sc3ccccc3N(CC(=O)Nc3cccc4ccccc34)C(=O)C2NC(=O)[C@H](Cc2ccc(OP(=O)(O)OCc3ccccc3)cc2)NC(=O)OC(C)(C)C)cc1 (stereo in doubt; 3c) | 189 | –
COc1ccc(C2Sc3ccccc3N(CCCC3CCCCC3)C(=O)C2NC(=O)[C@H](Cc2ccc(OP(=O)(O)OCc3ccccc3)cc2)NC(=O)OC(C)(C)C)cc1 (stereo partly drawn) | 6.4 | IC50 [2]: > 100000 nM; IC50 [3]: 28 µM
COc1ccc(C2Sc3ccccc3NC(=O)C2NC(=O)[C@H](Cc2ccc(OP(=O)(O)OCc3ccccc3)cc2)NC(=O)OC(C)(C)C)cc1 (stereo partly drawn) | 873 | –
CC[C@H](C)[C@H](NC(=O)[C@H](CCC(=O)O)NC(=O)[C@H](CCC(=O)O)NC(=O)[C@@H](N)Cc1ccc(OP(=O)(O)O)cc1)C(=O)O | 6.5 | IC50 [2]: 150 nM; IC50 [3]: 5 µM
COc1ccc(C2Sc3ccccc3N(CC(=O)NCc3cccc4ccccc34)C(=O)C2NC(=O)c2ccc3c(Cl)c(OP(=O)(O)OCc4ccccc4)ccc3c2)cc1 (stereo not drawn) | 27 | –
COc1ccc(C2Sc3ccccc3N(CC(=O)Nc3cccc4ccccc34)C(=O)C2NC(=O)[C@H](Cc2ccc(OP(=O)(O)OCc3ccccc3)cc2)NC(=O)OC(C)(C)C)cc1 (stereo in doubt; 3n) | 23 | –
CC(=O)N[C@@H](Cc1ccc(OP(=O)(O)O)cc1)C(=O)N[C@H]1CSCCN(CC(=O)c2ccc(N(C)C)cc2)C1=O | – | IC50 [4]: 9300 nM
COc1ccc(C2Sc3ccccc3N(CC(=O)NCc3cccc4ccccc34)C(=O)C2NC(=O)c2cc3cc(OP(=O)(O)OCc4ccccc4)ccc3[nH]2)cc1 (stereo not drawn) | 32 | –
COc1ccc(C2Sc3ccccc3N(CC(=O)Nc3cccc4ccccc34)C(=O)C2NC(=O)[C@H](Cc2ccc(OP(=O)(O)OCc3ccccc3)cc2)NC(=O)OC(C)(C)C)cc1 (stereo in doubt; 3l) | 133 | –
CC(C)(C)OC(=O)N[C@@H](Cc1ccc(OP(=O)(O)OCc2ccccc2)cc1)C(=O)NC1CSc2ccccc2N(CCCC2CCCCC2)C1=O (stereo partly drawn) | 26 | IC50 [2]: 13000 nM; IC50 [3]: 87 µM
CC(=O)N[C@@H](Cc1ccc(OP(=O)(O)O)cc1)C(=O)N[C@H]1CSCCN(Cc2cccc(-c3ccccc3C#N)c2)C1=O | – | IC50 [4]: 300 nM
COc1ccc(C2Sc3ccccc3N(CC(=O)Nc3ccc(Oc4ccccc4)cc3)C(=O)C2NC(=O)[C@H](Cc2ccc(OP(=O)(O)OCc3ccccc3)cc2)NC(=O)OC(C)(C)C)cc1 (stereo partly drawn) | 29 | –
COc1ccc(C2Sc3ccccc3N(CC(=O)Nc3cccc(Oc4ccccc4)c3)C(=O)C2NC(=O)[C@H](Cc2ccc(OP(=O)(O)OCc3ccccc3)cc2)NC(=O)OC(C)(C)C)cc1 (stereo partly drawn) | 14.2 | –
COc1ccc(C2Sc3ccccc3N(CC(=O)NCc3cccc4ccccc34)C(=O)C2NC(=O)[C@H](Cc2ccc(OP(=O)(O)OCc3ccccc3)cc2)NC(=O)OC(C)(C)C)cc1 (stereo in doubt; 3b) | 118 | –
CC(C)(C)OC(=O)N[C@@H](Cc1ccc(OP(=O)(O)O)cc1)C(=O)NC1CSc2ccccc2N(CCCC2CCCCC2)C1=O (stereo partly drawn) | 10 | IC50 [2]: 1000 nM; IC50 [3]: 11 µM
CC(=O)N[C@@H](Cc1ccc(OP(=O)(O)O)cc1)C(=O)N[C@H]1CSCCN(Cc2cccc(C(F)(F)F)c2)C1=O | 1.6 | –
COc1ccc(C2Sc3ccccc3N(CC(=O)Nc3cccc4ccccc34)C(=O)C2NC(=O)[C@H](Cc2ccc(OP(=O)(O)OCc3ccccc3)cc2)NC(=O)OC(C)(C)C)cc1 (stereo in doubt; 3m) | 26 | –

SMILES | IC50 [1] [µM] | further results
CC(=O)N[C@@H](Cc1ccc(OP(=O)(O)O)cc1)C(=O)N[C@H]1CSCCN(Cc2cccc(C(=O)c3ccccc3)c2)C1=O | 1.6 | –
CC(=O)N[C@@H](Cc1ccc(OP(=O)(O)O)cc1)C(=O)N[C@H]1CSCCN(Cc2ccc(-c3ccccc3)cc2)C1=O | – | IC50 [4]: 90 nM
COC(=O)c1cccc(CN2CCSC[C@H](NC(=O)[C@H](Cc3ccc(OP(=O)(O)O)cc3)NC(C)=O)C2=O)c1 | – | IC50 [4]: 130 nM
CC(=O)N[C@@H](Cc1ccc(OP(=O)(O)O)cc1)C(=O)N[C@H]1CSCCN(Cc2cccc(OC(F)(F)F)c2)C1=O | 0.4 | –
CC(C)(C)OC(=O)N[C@H](Cc1ccc(OP(=O)(O)O)cc1)C(=O)NC1CSc2ccccc2N(CCCC2CCCCC2)C1=O (stereo partly drawn) | 422 | IC50 [2]: 18000 nM
COc1ccc(C2Sc3ccccc3N(CC(=O)NCc3cccc4ccccc34)C(=O)C2NC(=O)c2ccc(OP(=O)(O)OCc3ccccc3)cc2)cc1 (stereo not drawn) | 20 | –
CC(C)(C)OC(=O)N[C@@H](Cc1ccc(OP(=O)(O)O)cc1)C(=O)NC1CSCCN(CCCC2CCCCC2)C1=O (stereo partly drawn) | 115 | IC50 [2]: 1400 nM
COc1ccc(C2Sc3ccccc3N(CC(=O)NCc3cccc4ccccc34)C(=O)C2NC(=O)[C@H](Cc2ccc(OP(=O)(O)OCc3ccccc3)cc2)NC(=O)OC(C)(C)C)cc1 (stereo in doubt; 3a) | 128 | –
COc1ccc(C2Sc3ccccc3N(Cc3ccc(-c4ccccc4C(=O)OC(C)(C)C)cc3)C(=O)C2NC(=O)[C@H](Cc2ccc(OP(=O)(O)OCc3ccccc3)cc2)NC(=O)OC(C)(C)C)cc1 (stereo partly drawn) | 18 | –
COc1ccc(C2Sc3ccccc3N(C(C(=O)Nc3cccc4ccccc34)c3ccccc3)C(=O)C2NC(=O)[C@H](Cc2ccc(OP(=O)(O)OCc3ccccc3)cc2)NC(=O)OC(C)(C)C)cc1 (stereo partly drawn) | 23 | –
COc1ccc(C2Sc3ccccc3N(CC(=O)NCc3cccc4ccccc34)C(=O)C2NC(=O)Cc2ccc(OP(=O)(O)OCc3ccccc3)cc2)cc1 (stereo not drawn) | 5 | –
CC(=O)N[C@@H](Cc1ccc(OP(=O)(O)O)cc1)C(=O)N[C@H]1CSCCN(Cc2ccc3c(c2Cl)OCO3)C1=O | – | IC50 [4]: 1200 nM
COc1ccc(C2Sc3ccccc3N(Cc3ccccc3)C(=O)C2NC(=O)[C@H](Cc2ccc(OP(=O)(O)OCc3ccccc3)cc2)NC(=O)OC(C)(C)C)cc1 (stereo partly drawn) | 46 | –
COc1ccc(C2Sc3ccccc3N(CC(=O)NCc3cccc4ccccc34)C(=O)C2NC(=O)c2ccc3cc(OP(=O)(O)OCc4ccccc4)ccc3c2)cc1 (stereo not drawn) | 23 | –
COc1ccc(C2Sc3ccccc3N(CC(=O)Nc3ccccc3OC)C(=O)C2NC(=O)[C@H](Cc2ccc(OP(=O)(O)OCc3ccccc3)cc2)NC(=O)OC(C)(C)C)cc1 (stereo partly drawn) | 95 | –
COc1ccc(C2Sc3ccccc3N(CC(=O)NCc3cccc4ccccc34)C(=O)C2NC(=O)CCc2ccc(OP(=O)(O)OCc3ccccc3)cc2)cc1 (stereo not drawn) | 339 | –
